Numbers after ± are expanded uncertainties.
Experiments:
[1] = mn = molality of the nth substance listed, in mol/kg; conditions: 100 kPa, Liquid; for speed of sound: Linear variable-path acoustic interferometer; for mass density: Pycnometric method
[2] = refractive index (Na D-line) (dimensionless); mn = molality of the nth substance listed, in mol/kg; conditions: 100 kPa, Liquid, Standard Abbe refractometry

CC1NC(=O)C(C)NC1=O (stereo not given) [3,6-dimethyl-2,5-piperazinedione] + O
m1 = 0.05
Conditions	mass density, [1] [kg/m3]	refractive index, [2]	speed of sound, [1] [m/s]
293.15 K	999.9 ± 0.38	1.3351 ± 0.0005	1499.7 ± 1.8
298.15 K	998.82 ± 0.39	1.3344 ± 0.0005	1509.5 ± 1.8
303.15 K	997.48 ± 0.4	1.3337 ± 0.0005	1521.1 ± 1.8
308.15 K	996.18 ± 0.41	1.3331 ± 0.0005	1527.9 ± 1.8
313.15 K	994.84 ± 0.43	1.3324 ± 0.0005	1535.9 ± 1.8

[Cl][Co][Cl] [cobalt chloride] + O
m1 = 0.1
Conditions	mass density, [1] [kg/m3]	refractive index, [2]	speed of sound, [1] [m/s]
293.15 K	1014 ± 0.39	1.3373 ± 0.0005	1502.5 ± 1.8
298.15 K	1013 ± 0.4	1.3368 ± 0.0005	1512 ± 1.8
303.15 K	1011.84 ± 0.41	1.3361 ± 0.0005	1524 ± 1.8
308.15 K	1010.16 ± 0.42	1.3356 ± 0.0005	1533.9 ± 1.8
313.15 K	1007.89 ± 0.43	1.335 ± 0.0005	1541.7 ± 1.8

Source: the NIST ThermoML archive (doi:10.1021/je3009123)
